From ChEMBL document CHEMBL5543175, “Discovery of Selective Proteolysis-Targeting Chimera Degraders Targeting PTP1B as Long-Term Hypoglycemic Agents” (J Med Chem, 2024) come the findings set out here.

Assay type in all cases: cell-based
Test [1] has as its target T1, Protein cereblon/Tyrosine-protein phosphatase non-receptor type 1 (Homo sapiens, UniProt P18031+Q96SW2). The test can be described thus: PROTAC activity at PTP1B/CRBN in insulin treated human HepG2 cells assessed as protein degradation at 500 nM incubated for 48 hrs by Western blot analysis relative to control. (In general: Immunoblotting shows a protein as a band on a membrane.)

For test [2], the target named is T1, Protein cereblon/Tyrosine-protein phosphatase non-receptor type 1. The test can be described thus: PROTAC activity at PTP1B/CRBN in insulin treated human HepG2 cells assessed as protein degradation at 5 nM incubated for 48 hrs by Western blot analysis relative to control.
Test [3] shares this target. The test can be described thus: PROTAC activity at PTP1B/CRBN in insulin treated human HepG2 cells assessed as protein degradation at 5000 nM incubated for 48 hrs by Western blot analysis relative to control.
For test [4] the target is unchanged. The test can be described thus: PROTAC activity at PTP1B/CRBN in insulin treated human HepG2 cells assessed as protein degradation at 50 nM incubated for 48 hrs by Western blot analysis relative to control.

Bounds are passed on as bounds.

T1 sequence (P18031 whole entry, looked up): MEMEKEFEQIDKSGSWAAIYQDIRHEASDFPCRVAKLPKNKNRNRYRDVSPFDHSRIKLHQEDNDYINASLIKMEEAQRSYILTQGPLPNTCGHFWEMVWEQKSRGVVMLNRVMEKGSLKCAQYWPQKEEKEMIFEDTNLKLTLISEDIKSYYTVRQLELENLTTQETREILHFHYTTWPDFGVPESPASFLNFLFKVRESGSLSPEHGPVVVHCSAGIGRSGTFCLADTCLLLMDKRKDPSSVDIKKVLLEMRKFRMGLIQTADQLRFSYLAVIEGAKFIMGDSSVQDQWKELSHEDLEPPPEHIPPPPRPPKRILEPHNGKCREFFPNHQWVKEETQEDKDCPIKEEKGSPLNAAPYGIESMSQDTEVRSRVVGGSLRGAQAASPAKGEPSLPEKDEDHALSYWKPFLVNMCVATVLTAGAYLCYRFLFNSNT
T1 sequence (Q96SW2 whole entry, looked up): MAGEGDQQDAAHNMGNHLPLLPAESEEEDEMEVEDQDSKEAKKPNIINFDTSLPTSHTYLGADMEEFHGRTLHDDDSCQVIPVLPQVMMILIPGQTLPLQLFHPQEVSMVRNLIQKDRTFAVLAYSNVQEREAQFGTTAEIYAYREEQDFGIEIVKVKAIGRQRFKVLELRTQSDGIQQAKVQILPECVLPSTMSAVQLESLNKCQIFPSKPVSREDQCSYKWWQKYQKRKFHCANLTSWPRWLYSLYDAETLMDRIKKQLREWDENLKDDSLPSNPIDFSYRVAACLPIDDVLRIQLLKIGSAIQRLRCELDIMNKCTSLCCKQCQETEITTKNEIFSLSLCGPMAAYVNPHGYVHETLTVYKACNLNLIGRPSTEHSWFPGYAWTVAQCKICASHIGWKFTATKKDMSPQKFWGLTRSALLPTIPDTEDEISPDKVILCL

As for `O=C1CCC(N2C(=O)c3cccc(NC(=O)CCCCCCCCCCNC(=O)c4cccc(NC(=O)CSc5nc6ccccc6[nH]5)c4)c3C2=O)C(=O)N1` (centres undefined), the Activity in test [1] was 19%; in test [2], 32%; in test [3] it was < 5%; in test [4] it was 9%.
Taken in the same sequence, the figures for `C[C@H]1[C@H](C)CC[C@]2(C(=O)NCCCCCCOCCOCC(=O)Nc3cccc4c3C(=O)N(C3CCC(=O)NC3=O)C4=O)CC[C@]3(C)C(=CC[C@@H]4[C@@]5(C)CC[C@H](O)C(C)(C)[C@@H]5CC[C@]43C)[C@H]12` (some centres undefined) were < 5%, 46%, < 5% and 60%.
Taken in the same sequence, the figures for `CC1(C)CC[C@]2(C(=O)NCCCCCCOCCOCCOCCOCC(=O)Nc3cccc4c3C(=O)N(C3CCC(=O)NC3=O)C4=O)CC[C@]3(C)C(=CC[C@@H]4[C@@]5(C)CC[C@H](O)C(C)(C)[C@@H]5CC[C@]43C)[C@@H]2C1` (some centres undefined) were 6%, 24%, 32% and 51%.
Regarding `O=C1CCC(N2C(=O)c3cccc(NC(=O)CCCCCOCCOCCOCCOCCCCCCNC(=O)c4cccc(NC(=O)CSc5nc6ccccc6[nH]5)c4)c3C2=O)C(=O)N1` (centres undefined), the Activity in test [1] was < 5%; in test [2], 32%; in test [3], < 5%; in test [4] it was 17%.
For `O=C1CCC(N2C(=O)c3cccc(NC(=O)CCCCCOCCOCCCCCCNC(=O)c4cccc(NC(=O)CSc5nc6ccccc6[nH]5)c4)c3C2=O)C(=O)N1` (centres undefined), the Activity in test [1] was 13%; in test [2] it was < 5%; in test [3], 10%; in test [4], 17%.
On to `C[C@H]1[C@H](C)CC[C@]2(C(=O)NCCCCCCOCCOCCOCCCCCC(=O)Nc3cccc4c3C(=O)N(C3CCC(=O)NC3=O)C4=O)CC[C@]3(C)C(=CC[C@@H]4[C@@]5(C)CC[C@H](O)C(C)(C)[C@@H]5CC[C@]43C)[C@H]12` (some centres undefined), for which the Activity is 6% in test [1], 16% in test [2], 17% in test [3] and < 5% in test [4].
As to `CC1(C)CC[C@]2(C(=O)NCCCCCCNc3cccc4c3C(=O)N(C3CCC(=O)NC3=O)C4=O)CC[C@]3(C)C(=CC[C@@H]4[C@@]5(C)CC[C@H](O)C(C)(C)[C@@H]5CC[C@]43C)[C@@H]2C1` (some centres undefined), the Activity was 43% in test [1], 38% in test [2], 29% in test [3] and 44% in test [4].
Taken in the same sequence, the figures for `C[C@H]1[C@H](C)CC[C@]2(C(=O)NCCCOCCCCOCCCNc3cccc4c3C(=O)N(C3CCC(=O)NC3=O)C4=O)CC[C@]3(C)C(=CC[C@@H]4[C@@]5(C)CC[C@H](O)C(C)(C)C5CC[C@]43C)[C@H]12` (some centres undefined) were 54%, 36%, 46% and 65%.
As to `O=C1CCC(N2C(=O)c3cccc(NC(=O)COCCOCCOCCOCCCCCCNC(=O)c4cccc(NC(=O)CSc5nc6ccccc6[nH]5)c4)c3C2=O)C(=O)N1` (centres undefined), the Activity in test [1] turned out to be 44%; in test [2] it was 26%; in test [3] it was 15%; in test [4], 70%.
Taken in the same sequence, the figures for `C[C@H]1[C@H](C)CC[C@]2(C(=O)NCCCCCCNc3cccc4c3C(=O)N(C3CCC(=O)NC3=O)C4=O)CC[C@]3(C)C(=CC[C@@H]4[C@@]5(C)CC[C@H](O)C(C)(C)[C@@H]5CC[C@]43C)[C@H]12` (some centres undefined) were 23%, 11%, 14% and 67%.
The like results for `C[C@H]1[C@H](C)CC[C@]2(C(=O)NCCCCCCOCCOCCOCCOCCCCCC(=O)Nc3cccc4c3C(=O)N(C3CCC(=O)NC3=O)C4=O)CC[C@]3(C)C(=CC[C@@H]4[C@@]5(C)CC[C@H](O)C(C)(C)[C@@H]5CC[C@]43C)[C@H]12` (some centres undefined) were, in that order, 12%, < 5%, 42% and < 5%.
